Data: PubChem BioAssay AID328 (DTP/NCI, 2004)
Where “and” joins values, the source holds several entries; their conditions need not be identical. Equal values may be shown once. Inconclusive results and toxic doses are left out.

System: BDF1 mice, P388 leukemia ip, median survival T/C
Test: NCI In Vivo Anticancer Drug Screen. Data for tumor model P388 Leukemia (intraperitoneal) in B6D2F1 (BDF1) mice
Conditions: endpoint: median survival time, higher = longer survival
Summary of the method: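 Antitumour effect was judged in vivo: survival in drug-treated mice, normalised to that of vehicle-dosed controls, gives the reported T/C.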

[1] = dose: 25.0 mg/kg/injection, schedule: Q01DX009 (ip), vehicle: water
[2] = dose: 50.0 mg/kg/injection, schedule: Q01DX009 (ip), vehicle: saline
[3] = dose: 50.0 mg/kg/injection, schedule: Q01DX009 (ip), vehicle: water
[4] = dose: 100.0 mg/kg/injection, schedule: Q01DX009 (ip), vehicle: Klucel (hydroxypropylcellulose) (HPC)
[5] = dose: 100.0 mg/kg/injection, schedule: Q01DX009 (ip), vehicle: saline
[6] = dose: 100.0 mg/kg/injection, schedule: Q04DX003 (ip), vehicle: saline
[7] = dose: 200.0 mg/kg/injection, schedule: Q01DX009 (ip), vehicle: saline
[8] = dose: 200.0 mg/kg/injection, schedule: Q04DX003 (ip), vehicle: saline
[9] = dose: 25.0 mg/kg/injection, schedule: Q04DX003 (ip), vehicle: Klucel (hydroxypropylcellulose) (HPC)
[10] = dose: 50.0 mg/kg/injection, schedule: Q04DX003 (ip), vehicle: Klucel (hydroxypropylcellulose) (HPC)
[11] = dose: 100.0 mg/kg/injection, schedule: Q04DX003 (ip), vehicle: Klucel (hydroxypropylcellulose) (HPC)
[12] = dose: 100.0 mg/kg/injection, schedule: Q01DX009 (ip), vehicle: saline with Tween-80
[13] = dose: 200.0 mg/kg/injection, schedule: Q01DX009 (ip), vehicle: saline with Tween-80
[14] = dose: 50.0 mg/kg/injection, schedule: Q01DX009 (ip), vehicle: saline with Tween-80
[15] = dose: 150.0 mg/kg/injection, schedule: Q01DX009 (ip), vehicle: saline with Tween-80
[16] = dose: 50.0 mg/kg/injection, schedule: Q01DX009 (ip), vehicle: Klucel (hydroxypropylcellulose) (HPC)
[17] = dose: 200.0 mg/kg/injection, schedule: Q04DX003 (ip), vehicle: Klucel (hydroxypropylcellulose) (HPC)
[18] = dose: 400.0 mg/kg/injection, schedule: Q04DX003 (ip), vehicle: Klucel (hydroxypropylcellulose) (HPC)

COc1cc2c[n+](C)c3c4cc(OC)c(OC)cc4ccc3c2cc1OC
T/C (dose: 3.12 mg/kg/injection, schedule: Q01DX009 (ip), vehicle: water): 98 % of control
T/C (dose: 6.25 mg/kg/injection, schedule: Q01DX009 (ip), vehicle: water): 112 % of control
T/C (dose: 12.5 mg/kg/injection, schedule: Q01DX009 (ip), vehicle: water): 118 % of control
T/C (dose: 25.0 mg/kg/injection, schedule: Q01DX009 (ip), vehicle: other): 153 % of control
T/C [1]: 120 % of control
T/C (dose: 34.0 mg/kg/injection, schedule: Q01DX009 (ip), vehicle: saline): 159 % of control
T/C (dose: 50.0 mg/kg/injection, schedule: Q01DX009 (ip), vehicle: other): 174 % of control
T/C [2]: 188 % of control
T/C [3]: 100 % of control
T/C (dose: 50.0 mg/kg/injection, schedule: Q04DX003 (ip), vehicle: water): 103 % of control
T/C (dose: 52.0 mg/kg/injection, schedule: Q01DX009 (ip), vehicle: saline): 150 % of control
T/C (dose: 80.0 mg/kg/injection, schedule: Q01DX009 (ip), vehicle: saline): 165 % of control and 172 % of control
T/C [4]: 151 % of control
T/C (dose: 100.0 mg/kg/injection, schedule: Q01DX009 (ip), vehicle: other): 172 % of control
T/C [5]: 200 % of control
T/C (dose: 100.0 mg/kg/injection, schedule: Q01DX009 (ip), vehicle: water): 106 % of control
T/C [6]: 113 % of control
T/C (dose: 100.0 mg/kg/injection, schedule: Q04DX003 (ip), vehicle: water): 120 % of control
T/C (dose: 120.0 mg/kg/injection, schedule: Q01DX009 (ip), vehicle: saline): 155 % of control and 168 % of control
T/C (dose: 180.0 mg/kg/injection, schedule: Q01DX009 (ip), vehicle: saline): 159 % of control
T/C [7]: 183 % of control
T/C [8]: 95 % of control
T/C (dose: 240.0 mg/kg/injection, schedule: Q01DX009 (ip), vehicle: saline): 90 % of control
T/C (dose: 240.0 mg/kg/injection, schedule: Q04DX003 (ip), vehicle: saline): 150 % of control
T/C (dose: 400.0 mg/kg/injection, schedule: Q04DX003 (ip), vehicle: water): 92 % of control
T/C (dose: 600.0 mg/kg/injection, schedule: Q04DX003 (ip), vehicle: saline): 100 % of control

[N-]=[N+]=C1C(=O)NN=C1c1ccccc1
T/C [9]: 104 % of control
T/C [10]: 114 % of control
T/C [11]: 95 % of control

ClCCN=Cc1ccc(Cl)cc1
T/C [12]: 116 % of control
T/C [13]: 111 % of control
T/C (dose: 400.0 mg/kg/injection, schedule: Q01DX009 (ip), vehicle: saline with Tween-80): 120 % of control

O=C(c1ccc[nH]1)C(Cl)(Cl)Cl
T/C [14]: 108 % of control
T/C [12]: 117 % of control
T/C [13]: 115 % of control

O=P1(NCCCl)OCCCN1CCCl (stereo not given)
T/C (dose: 0.8 mg/kg/injection, schedule: Q01DX010 (ip), vehicle: saline): 105 % of control
T/C (dose: 1.5 mg/kg/injection, schedule: Q01DX010 (ip), vehicle: saline): 100 % of control
T/C (dose: 3.0 mg/kg/injection, schedule: Q01DX010 (ip), vehicle: saline): 110 % of control
T/C (dose: 3.12 mg/kg/injection, schedule: Q01DX009 (ip), vehicle: saline): 99 % of control
T/C (dose: 6.0 mg/kg/injection, schedule: Q01DX010 (ip), vehicle: saline): 110 % of control
T/C (dose: 6.25 mg/kg/injection, schedule: Q01DX009 (ip), vehicle: saline): 107 % of control and 115 % of control
T/C (dose: 12.5 mg/kg/injection, schedule: Q01DX009 (ip), vehicle: saline): 173 % of control
T/C (dose: 12.5 mg/kg/injection, schedule: Q01DX010 (ip), vehicle: saline): 177 % of control
T/C (dose: 25.0 mg/kg/injection, schedule: Q01DX009 (ip), vehicle: saline): 166 % of control and 196 % of control
T/C [1]: 156 % of control
T/C (dose: 25.0 mg/kg/injection, schedule: Q01DX010 (ip), vehicle: saline): 216 % of control
T/C [2]: 121 % of control
T/C [3]: 241 % of control
T/C (dose: 50.0 mg/kg/injection, schedule: Q01DX010 (ip), vehicle: saline): 200 % of control
T/C [5]: 105 % of control
T/C (dose: 100.0 mg/kg/injection, schedule: Q01DX010 (ip), vehicle: saline): 300 % of control
T/C [7]: 87 % of control
T/C (dose: 200.0 mg/kg/injection, schedule: Q01DX009 (ip), vehicle: water): 98 % of control
T/C (dose: 200.0 mg/kg/injection, schedule: Q01DX010 (ip), vehicle: saline): 105 % of control

CC(C)CCOC(=O)C(Br)c1ccccc1 (stereo not given)
T/C (dose: 44.0 mg/kg/injection, schedule: Q01DX009 (ip), vehicle: saline with Tween-80): 110 % of control
T/C (dose: 66.0 mg/kg/injection, schedule: Q01DX009 (ip), vehicle: saline with Tween-80): 107 % of control
T/C (dose: 100.0 mg/kg/injection, schedule: Q04DX003 (ip), vehicle: saline with Tween-80): 108 % of control
T/C [15]: 115 % of control
T/C (dose: 200.0 mg/kg/injection, schedule: Q04DX003 (ip), vehicle: saline with Tween-80): 116 % of control
T/C (dose: 400.0 mg/kg/injection, schedule: Q04DX003 (ip), vehicle: saline with Tween-80): 104 % of control

CC12CCC(C)(O)C(CC3=C1CCc1ccccc13)C2=O (stereo not given)
T/C (dose: 75.0 mg/kg/injection, schedule: Q04DX003 (ip), vehicle: saline): 100 % of control
T/C (dose: 150.0 mg/kg/injection, schedule: Q04DX003 (ip), vehicle: saline): 91 % of control
T/C (dose: 300.0 mg/kg/injection, schedule: Q04DX003 (ip), vehicle: saline): 95 % of control

CCOC(=O)CS(=O)(=O)c1ccc(NC(C)=O)cc1
T/C [16]: 104 % of control
T/C [4]: 91 % of control and 120 % of control
T/C (dose: 200.0 mg/kg/injection, schedule: Q01DX009 (ip), vehicle: Klucel (hydroxypropylcellulose) (HPC)): 96 % of control and 115 % of control
T/C (dose: 400.0 mg/kg/injection, schedule: Q01DX009 (ip), vehicle: Klucel (hydroxypropylcellulose) (HPC)): 105 % of control

c1cc2c(c(NC3=NCCO3)c1)CCCC2
T/C (dose: 37.5 mg/kg/injection, schedule: Q01DX009 (ip), vehicle: saline with Tween-80): 113 % of control
T/C (dose: 75.0 mg/kg/injection, schedule: Q01DX009 (ip), vehicle: saline with Tween-80): 118 % of control
T/C [15]: 120 % of control

CC(=O)OCC(OC(C)=O)c1cc(/C=N/N(C(C)=O)c2ccccc2)nn1-c1ccccc1 (stereo not given)
T/C (dose: 25.0 mg/kg/injection, schedule: Q01DX009 (ip), vehicle: saline with Tween-80): 101 % of control
T/C [14]: 98 % of control
T/C [12]: 96 % of control

O=c1oc2cc(O)ccc2c2c1CCCC2
T/C [11]: 95 % of control
T/C [17]: 95 % of control
T/C [18]: 100 % of control

O=C(N1CCCC1)C(F)(F)C(F)(F)C(F)(F)F
T/C [14]: 90 % of control
T/C [12]: 99 % of control

O=C(O)C1CC2c3ccccc3C1c1ccccc12 (stereo not given)
T/C [11]: 90 % of control
T/C [17]: 95 % of control
T/C [18]: 109 % of control

CCOC(=O)C(C(=O)OCC)=C(C#N)c1c[nH]c2ccccc12
T/C (dose: 12.5 mg/kg/injection, schedule: Q01DX009 (ip), vehicle: Klucel (hydroxypropylcellulose) (HPC)): 90 % of control
T/C (dose: 25.0 mg/kg/injection, schedule: Q01DX009 (ip), vehicle: Klucel (hydroxypropylcellulose) (HPC)): 104 % of control
T/C [16]: 104 % of control
T/C [11]: 95 % of control
T/C [17]: 100 % of control
T/C [18]: 109 % of control

Cc1cc(-c2ccc(NC(=O)Nc3cccc(F)c3)c(C)c2)ccc1NC(=O)Nc1cccc(F)c1
T/C (dose: 50.0 mg/kg/injection, schedule: Q01DX005 (ip), vehicle: saline with Tween-80): 91 % of control
T/C (dose: 100.0 mg/kg/injection, schedule: Q01DX005 (ip), vehicle: saline with Tween-80): 86 % of control
T/C (dose: 200.0 mg/kg/injection, schedule: Q01DX005 (ip), vehicle: saline with Tween-80): 86 % of control

CC(=O)[C@H]1[C@H](O)C[C@H]2[C@@H]3CCC4=CC(=O)CC[C@]4(C)[C@@]3(F)[C@@H](O)C[C@@]21C
T/C [6]: 100 % of control
T/C [8]: 113 % of control
T/C (dose: 400.0 mg/kg/injection, schedule: Q04DX003 (ip), vehicle: saline): 113 % of control

O=C(CBr)c1cccc(OC(=O)c2ccccc2)c1
T/C [9]: 96 % of control
T/C [10]: 88 % of control
